Reference: the NIST ThermoML archive (doi:10.1016/j.jct.2012.08.022)
Numbers after ± are expanded uncertainties.

Columns and labels:
[1] = activity coefficient (dimensionless); of the first substance listed, at infinite dilution; xn = mol fraction of the nth substance listed; conditions: Liquid, Chromatography, x1 = 0
[2] = 101.33 kPa, Liquid, vibrating tube

Compound | activity coefficient ([1]; 313 K) | activity coefficient ([1]; 333 K) | activity coefficient ([1]; 353 K) | activity coefficient ([1]; 373 K) | activity coefficient ([1]; 393 K) | activity coefficient ([1]; 413 K) | further results
COCCOC [1,2-dimethoxyethane] + CCCCn1cc[n+](C)c1.O=S(=O)([O-])O | 4.76 ± 0.32 | 5.61 ± 0.38 | 7.03 ± 0.48 | 8.44 ± 0.58 | 10 ± 0.7 | 11.6 ± 0.8 | 
COCCOC [1,2-dimethoxyethane] + Cn1cc[n+](C[Si](C)(C)C)c1.[Cl-] | 3.42 ± 0.23 | 3.49 ± 0.24 | 3.56 ± 0.24 | 3.89 ± 0.26 | 3.89 ± 0.26 | 3.77 ± 0.26 | 
C1COCCO1 [1,4-dioxane] + CCCCn1cc[n+](C)c1.O=S(=O)([O-])O | 2.72 ± 0.19 | 2.78 ± 0.19 | 2.99 ± 0.2 | 3.36 ± 0.23 | 3.8 ± 0.26 | 4.41 ± 0.3 | 
C1COCCO1 [1,4-dioxane] + Cn1cc[n+](C[Si](C)(C)C)c1.[Cl-] | 2.14 ± 0.15 | 1.95 ± 0.13 | 2.07 ± 0.14 | 2.13 ± 0.14 | 2.16 ± 0.15 | 2.28 ± 0.16 | 
CCCCn1cc[n+](C)c1.O=S(=O)([O-])O [1-butyl-3-methylimidazolium hydrogen sulfate] |  |  |  |  |  |  | mass density ([2]; 303 K): 1275.9 ± 0.4 kg/m3; mass density ([2]; 308 K): 1272.5 ± 0.4 kg/m3; mass density ([2]; 313 K): 1269 ± 0.4 kg/m3; mass density ([2]; 318 K): 1266.4 ± 0.4 kg/m3; mass density ([2]; 323 K): 1263.4 ± 0.4 kg/m3; mass density ([2]; 328 K): 1260.4 ± 0.4 kg/m3; mass density ([2]; 333 K): 1257.4 ± 0.4 kg/m3; mass density ([2]; 338 K): 1254.5 ± 0.4 kg/m3; mass density ([2]; 343 K): 1251.5 ± 0.4 kg/m3; mass density ([2]; 348 K): 1248.6 ± 0.4 kg/m3; mass density ([2]; 353 K): 1245.7 ± 0.4 kg/m3; mass density ([2]; 358 K): 1242.8 ± 0.4 kg/m3; mass density ([2]; 363 K): 1240 ± 0.4 kg/m3
Cn1cc[n+](C[Si](C)(C)C)c1.[Cl-] [1-methyl-3-(trimethylsilylmethyl)imidazolium chloride] |  |  |  |  |  |  | mass density ([2]; 313 K): 1055.9 ± 1 kg/m3; mass density ([2]; 318 K): 1053 ± 0.9 kg/m3; mass density ([2]; 323 K): 1050.1 ± 0.9 kg/m3; mass density ([2]; 328 K): 1047.2 ± 0.9 kg/m3; mass density ([2]; 333 K): 1044.1 ± 0.9 kg/m3; mass density ([2]; 338 K): 1040.9 ± 0.9 kg/m3; mass density ([2]; 343 K): 1038.1 ± 0.9 kg/m3; mass density ([2]; 348 K): 1035.3 ± 0.9 kg/m3; mass density ([2]; 353 K): 1032.4 ± 0.9 kg/m3; mass density ([2]; 358 K): 1029.6 ± 0.9 kg/m3; mass density ([2]; 363 K): 1026.8 ± 0.9 kg/m3
CC#N [acetonitrile] + CCCCn1cc[n+](C)c1.O=S(=O)([O-])O | 1.23 ± 0.08 | 1.31 ± 0.09 | 1.28 ± 0.08 | 1.26 ± 0.08 | 1.24 ± 0.08 | 1.19 ± 0.08 | 
CC#N [acetonitrile] + Cn1cc[n+](C[Si](C)(C)C)c1.[Cl-] | 0.629 ± 0.043 | 0.659 ± 0.045 | 0.695 ± 0.047 | 0.712 ± 0.047 | 0.73 ± 0.048 | 0.756 ± 0.05 | 
c1ccccc1 [benzene] + CCCCn1cc[n+](C)c1.O=S(=O)([O-])O | 5.11 ± 0.35 | 4.95 ± 0.34 | 5.36 ± 0.37 | 5.28 ± 0.36 | 5.49 ± 0.37 | 5.69 ± 0.39 | 
c1ccccc1 [benzene] + Cn1cc[n+](C[Si](C)(C)C)c1.[Cl-] | 2.44 ± 0.17 | 2.3 ± 0.16 | 2.6 ± 0.18 | 2.94 ± 0.2 | 3.85 ± 0.26 | 4.36 ± 0.3 | 
CCO [ethanol] + Cn1cc[n+](C[Si](C)(C)C)c1.[Cl-] |  | 0.153 ± 0.029 | 0.158 ± 0.029 | 0.163 ± 0.029 |  |  | 
CCOC(C)=O [ethyl acetate] + CCCCn1cc[n+](C)c1.O=S(=O)([O-])O | 9.02 ± 0.62 | 9.95 ± 0.68 | 11.7 ± 0.8 | 12.8 ± 0.9 | 13.8 ± 0.9 |  | 
CCOC(C)=O [ethyl acetate] + Cn1cc[n+](C[Si](C)(C)C)c1.[Cl-] | 4.4 ± 0.3 | 4.27 ± 0.29 | 5.14 ± 0.35 | 6.96 ± 0.47 | 8.26 ± 0.56 |  | 
CO [methanol] + Cn1cc[n+](C[Si](C)(C)C)c1.[Cl-] |  | 0.0373 | 0.0421 | 0.0472 |  |  | 
C[N+](=O)[O-] [nitromethane] + CCCCn1cc[n+](C)c1.O=S(=O)([O-])O | 0.826 ± 0.053 | 0.771 ± 0.05 | 0.83 ± 0.053 | 0.939 ± 0.059 | 1.08 ± 0.07 | 1.18 ± 0.08 | 
C[N+](=O)[O-] [nitromethane] + Cn1cc[n+](C[Si](C)(C)C)c1.[Cl-] | 0.449 ± 0.036 | 0.442 ± 0.036 | 0.477 ± 0.037 | 0.527 ± 0.039 | 0.559 ± 0.04 | 0.599 ± 0.042 | 
CCCO [propan-1-ol] + Cn1cc[n+](C[Si](C)(C)C)c1.[Cl-] |  | 0.0747 ± 0.03 | 0.0878 ± 0.03 | 0.102 ± 0.03 |  |  | 
C1CCOC1 [tetrahydrofuran] + CCCCn1cc[n+](C)c1.O=S(=O)([O-])O | 5.1 ± 0.35 | 5.61 ± 0.38 | 6.6 ± 0.45 | 7.34 ± 0.5 | 8.55 ± 0.58 |  | 
C1CCOC1 [tetrahydrofuran] + Cn1cc[n+](C[Si](C)(C)C)c1.[Cl-] | 3.09 ± 0.21 | 2.93 ± 0.2 | 3.7 ± 0.25 | 4.31 ± 0.29 | 4.79 ± 0.33 |  | 
Cc1ccccc1 [toluene] + CCCCn1cc[n+](C)c1.O=S(=O)([O-])O | 8.51 ± 0.58 | 9.22 ± 0.63 | 9.7 ± 0.66 | 11.1 ± 0.8 | 13 ± 0.9 | 13.9 ± 1 | 
Cc1ccccc1 [toluene] + Cn1cc[n+](C[Si](C)(C)C)c1.[Cl-] | 4.1 ± 0.28 | 3.8 ± 0.26 | 4.07 ± 0.28 | 4.67 ± 0.32 | 5.46 ± 0.37 | 6.21 ± 0.42 | 
ClC(Cl)Cl [trichloromethane] + Cn1cc[n+](C[Si](C)(C)C)c1.[Cl-] | 0.112 ± 0.03 | 0.153 ± 0.029 | 0.2 ± 0.029 | 0.253 ± 0.03 | 0.301 ± 0.031 | 0.338 ± 0.032 | 
